Data set [1] has as its system SC131 tumor model. The data set can be described thus: response of SC131 tumor model to standard-of-care agents. Format: in vivo, mouse. The conditions noted are these: data obtained on swiss nude mice. An excerpt:
Human tumor samples of various histological origins were obtained with informed consent from patients treated at cancer centers and established as transplantable xenografts in immunodeficient mice. The grafted samples are residual material from primary tumors or metastases obtained before or after treatment. These patient-derived xenograft (PDX) models have been established without prior in vitro culture and have been studied for histology, cytogenetics, genetic and other biological markers, and for their response to standard-of-care (SOC) therapies.
SC131 is low responder to docetaxel and to the combination cisplatin/gemcitabine, and no responder to the other agents tested (data obtained on swiss nude mice).

The nature of data set [2]: tolerability (body weight, clinical observations) in study XTS-1526. As for the experimental part: Adverse effect of the different treatments was determined as: • Relative Body Weight (RBW) will be calculated for each measurement by dividing the body weight by the body weight at the start of treatment. • Individual Body weight loss percent (% BWL)=100−(BWx/BW0×100), where BWx is the BW at any day during the treatment and BW0 is the BW on the 1st day of treatment.
Mice were observed every day for physical appearance, behavior and clinical changes.
Animals were sacrificed based on the following criteria: • Body weight loss (BWL)≥20% compared to the 1st day of treatment for 48 consecutive hours (3 measurements). • General alteration of behaviour or clinical signs. • Tumor volume ≥2000 mm^3.
Mean Body weight loss percent (% BWL)=100−(mean BWx/mean BW0x 100), where BWx is the mean BW at any day during the treatment and BW0 is the mean BW on the 1st day of treatment.

The subject of data set [3] is SC131 patient-derived non-small-cell lung xenograft. Nature of the data set: antitumor efficacy study XTS-1526 in SC131 patient-derived xenograft.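 For all read-outs here: subcutaneous tumor fragments grafted in mice, tumor volume from caliper diameters (length × width²/2) taken three times weekly during treatment, each treated group compared against vehicle controls.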 The conditions noted are these: for CR (complete regression), number of mice / TFS (Tumor Free Survivor), number of mice / TS (Tumor Stabilization), number of mice / PR (partial regression), number of mice: 9 mice per group; for antitumor efficacy compared with control group 1 (in words): Mann-Whitney test vs vehicle; for TGDI (Tumor Growth Delay Index): TGD treated/TGD control, same regimens; for TS (Tumor Stabilization), number of mice: constant tumor size during at least 3 consecutive measurements; for Best T/C%: day of best T/C D16 (G6: D11); for T/C % at day 16: mean tumor volume treated/control x100, day 16; for median TGD x 5: time to reach 5x D0 tumor volume, GM102 20 mg/kg IV 2qwk, docetaxel 20 mg/kg slow IV D0, cisplatin 5 + gemcitabine 100 mg/kg IP qwk; for PR (partial regression), number of mice: tumor size lower than initial during at least 3 consecutive measurements.
Excerpt: Fifty-four (54) mice with a subcutaneously growing SC131 tumor (P22.1.3/0) between 62.5 and 220.5 mm^3 were allocated to treatment when the mean and median tumor volume reached 130.76 and 126.00 mm^3 respectively.
Tumors of the same passage were transplanted subcutaneously onto 3-24 mice (donor mice, passage (n−1)). When these tumors reached 700 to 2000 mm^3, donor mice were sacrificed by cervical dislocation, tumors were aseptically excised and dissected. After removing necrotic areas, tumors were cut into fragments measuring approximately 20 mm^3 and transferred in culture medium before grafting.
Eighty-nine (89) mice were anaesthetized with 100 mg/kg ketamine hydrochloride (batch 5D92—exp: 03-2017, Virbac) and 10 mg/kg xylazine (batch KP0AX9X, Bayer), and then skin was aseptized with a chlorhexidine solution, incised at the level of the interscapular region, and a 20 mm^3 tumor fragment was placed in the subcutaneous tissue. Skin was closed with clips.
Treatments were randomly attributed to boxes housing up to 5 mice and were initiated 18 days post implantation of the tumor (60% inclusion rate with staggered inclusion). The study was staggered-included with 5 mice included per group first, then 4 mice included per group 2 days later. The study was terminated following 31 days after the start of treatment.
For the additional groups 7 and 8, tumor size was higher and more heterogeneous. Animals were included 32 days post implantation.
Tumor volume was evaluated by measuring tumor diameters, with a caliper, three times a week during the treatment period. The formula TV (mm^3)=[length (mm)×width (mm)^2]/2 was used, where the length and the width are the longest and the shortest diameters of the tumor, respectively.
For the groups 1 to 6, each group initially included 9 mice. For the groups 7 and 8, each group initially included 8 mice.
Individual tumor growth delays (TGD) was calculated as the time in days required for individual tumors to reach 3- to 5-fold the initial tumor volume.
The tumor growth delay index (TGDI) was calculated as the median growth delay in the treated group divided by the median growth delay in the control group.
The percentage ratio between the mean tumor volume of a treated group (T) and the mean tumor volume of the control group (C) was calculated.
Statistical analysis was done for each measurement by Mann-Whitney non parametric comparison test. Each treated group was compared with control group.
Tumor Stabilization (TS) was defined as the number of mice presenting a constant tumor size during at least 3 consecutive measurements.
Partial tumor Regression (PR) was defined as the number of mice presenting a tumor size lower than initial tumor size during at least 3 consecutive measurements.

Data set [4] addresses T1, human Anti-Mullerian Hormone type II Receptor (AMHRII) (human, UniProt Q16671 18-573).
T1 construct: also called AMHR2; MISRII
T1 sequence: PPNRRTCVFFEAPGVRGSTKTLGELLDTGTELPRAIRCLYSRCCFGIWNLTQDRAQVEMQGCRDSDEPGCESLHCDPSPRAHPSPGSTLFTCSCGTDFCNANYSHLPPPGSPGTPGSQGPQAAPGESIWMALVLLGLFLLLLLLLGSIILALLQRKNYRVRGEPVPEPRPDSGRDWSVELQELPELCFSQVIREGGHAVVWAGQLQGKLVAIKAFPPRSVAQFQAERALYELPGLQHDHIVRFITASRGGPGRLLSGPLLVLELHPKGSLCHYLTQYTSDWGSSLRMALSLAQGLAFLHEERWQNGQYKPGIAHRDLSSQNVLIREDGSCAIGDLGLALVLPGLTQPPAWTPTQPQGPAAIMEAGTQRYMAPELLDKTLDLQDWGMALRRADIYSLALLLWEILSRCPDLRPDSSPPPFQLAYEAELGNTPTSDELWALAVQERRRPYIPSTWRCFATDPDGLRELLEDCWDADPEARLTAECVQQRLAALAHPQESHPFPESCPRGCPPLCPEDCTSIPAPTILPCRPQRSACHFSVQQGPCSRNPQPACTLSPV
Nature of the data set: immunohistochemistry (immunoperoxidase, biotinylated antibody) on AMHR2-transfected COV434 cells.

Data set [5] deals with T2, AMHRII (Homo sapiens, UniProt Q16671).
T2 sequence (Q16671 18-573): T1 sequence
The data set can be described thus: binding of 3C23K antibody to AMHRII (Kd).

For data set [6], the system named is AMHR2-transfected human tumor cell lines. The conditions noted are these: cited from earlier work.
Data set [7] concerns LXFE2226 squamous non-small cell lung cancer model tumor xenografts. Nature of the data set: antitumor efficacy in LXFE2226 tumor xenografts. It is filed as in vivo, mouse. An excerpt: Tumor fragments were obtained from xenografts in serial passage in nude mice. After removal from donor mice, tumors were cut into fragments (3-4 mm edge length) and placed in PBS containing 10% penicillin/streptomycin. Recipient animals were anesthetized by inhalation of isoflurane and received unilateral or bilateral tumor implants subcutaneously in the flank.
LXFE2226 squamous non-small cell lung cancer model tumor xenografts were implanted subcutaneously with one tumor per mouse (NMRI-Foxn1^nu from Charles River). The experiment consisted of two groups of mice from which three of them were euthanized on day 15 for detecting membranous AMHRII expression by flow cytometry. The first group was a vehicle control group and the second group received the investigational antibody GM102, which was administered intraperitoneally (i.p.) twice weekly at a dose level of 20 mg/kg.
Antitumor efficacy was evaluated as minimum T/C value by comparison of group median relative tumor volumes (RTVs) on the days where the optimal efficacy was reached. The experiment was terminated on day 43 after a two-week dosing-free observation period.

Bounds are passed on as bounds.

As to `CC(=O)O[C@@]12CO[C@@H]1C[C@H](O)[C@@]1(C)C(=O)[C@H](O)C3=C(C)[C@@H](OC(=O)[C@H](O)[C@@H](NC(=O)OC(C)(C)C)c4ccccc4)C[C@@](O)([C@@H](OC(=O)c4ccccc4)[C@H]21)C3(C)C` [Docetaxel], the “response of SC131 to the agent (in words)” value in data set [1] is “low responder”. Besides, the “mice that had to be sacrificed before the end of the study” value in data set [2] (despite DietGel, 9 mice per group (groups 7, 8: 8)) was 4. In addition, in data set [2] (mouse, in vivo), the “maximum individual body weight loss” value stood at 23.8% and the “maximum mean body weight loss” value was 17.0%. Moreover, in data set [3], the “CR (complete regression), number of mice” value is listed as 0; the “TFS (Tumor Free Survivor), number of mice” value is 0; the “antitumor efficacy compared with control group 1 (in words)” value was “strong and statistically significant”; the “TGDI (Tumor Growth Delay Index)” value is reported as >2.71. In data set [3], the “TS (Tumor Stabilization), number of mice” value is reported as 7; the “Best T/C%” value stood at 11.00%; the “T/C % at day 16” value came out at 11.00%; the “median TGD x 5” value is >28 days. Further, in data set [3], the “PR (partial regression), number of mice” value was 2. Also, in data set [3] (listed as docetaxel), the “TGDI (Tumor Growth Delay Index)” value was > 2.71; the “TS (Tumor Stabilization), number of mice” value was 7/9; the “Best T/C%” value was found to be 11.00%; the “PR (partial regression), number of mice” value is on record as 2/9. Also, in data set [3] (day 4), the “Mann-Whitney analysis on tumor volume vs vehicle, day 4” value is listed as “** (P < 0.01)”. For the same molecule, in data set [3] (day 7), the “Mann-Whitney analysis on tumor volume vs vehicle, day 7” value is “*** (P < 0.001)”. For the same molecule, the “Mann-Whitney analysis on tumor volume vs vehicle, day 9” value in data set [3] (day 9) is on record as “*** (P < 0.001)”. The “Mann-Whitney analysis on tumor volume vs vehicle, day 11” value in data set [3] (day 11) is “*** (P < 0.001)”. Moreover, the “Mann-Whitney analysis on tumor volume vs vehicle, day 14” value in data set [3] (day 14) is recorded as “*** (P < 0.001)”. The “Mann-Whitney analysis on tumor volume vs vehicle, day 16” value in data set [3] (day 16) is on record as “*** (P < 0.001)”.

B1: 3C23K anti-AMHRII monoclonal antibody (antibody, human IgG1, kappa, V domains shown)
VH: QVRLVQSGAEVKKPGASVKVSCKASGYTFTSYHIHWVRQAPGQRLEWMGWIYPGDDSTKYSQKFQGRVTITRDTSASTAYMELSSLRSEDTAVYYCTRGDRFAYWGQGTLVTVSS
VL: DIQMTQSPSTLSASVGDRVTITCRASSSVRYIAWYQQKPGKAPKLLTYPTSSLKSGVPSRFSGSGSGTEFTLTISSLQPDDFATYYCLQWSSYPWTFGGGTKVEIKR
notes: Humanized mAb; GM102 is described as a low fucose form; also called GM102; 3C23K-AF
Regarding B1, the binding result in data set [4] is recorded as “binds”.

B2: GM102: humanized anti-AMHRII (AMHR2) monoclonal antibody, low fucose; VH SEQ ID NO 19, VL SEQ ID NO 36 (antibody, V domains shown)
VH: B1 VH
VL: DIQMTQSPSTLSASVGDRVTITCRASSSVRYIAWYQQKPGKAPKLLTYPTSSLKSGVPSRFSGSGSGTEFTLTISSLQPDDFATYYCLQWSSYPWTFGGGTKVEIK
modifications: low fucose; Synthetic 3C23K/3C23; Synthetic 3C23K
In data set [5], B2 displayed a dissociation constant (Kd) of 0.0553 nM. In data set [6] (Jacquet A., Cancer Res, 2012), the “efficacy in combination with carboplatin and paclitaxel (in words)” value is listed as “synergistic”. For the same molecule, the “antitumor efficacy (in words)” value in data set [6] (mouse, in vivo) was “display antitumor efficacy”. Also, the “tumor volume at Day 28 vs vehicle (in words)” value in data set [7] (Day 28, p<0.001) is given as “drastically reduction of the tumor volume”. For the same molecule, the “anti-tumor activity (in words)” value in data set [7] (GM102 20 mg/kg i.p. twice weekly, NMRI-Foxn1nu mice) is given as “strong anti-tumor activity”. The mice found dead entry in data set [2] (9 mice per group (groups 7, 8: 8)) is reported as “Mouse #27 was found dead on day 27”. For the same molecule, the “maximum mean body weight loss” value in data set [2] (SC131-bearing nude mice (cachectic tumor), day of maximum differs per group) is 9.8%. Also, the “maximum individual body weight loss” value in data set [2] (SC131-bearing nude mice, day of maximum differs per group) is 16.8%. Besides, in data set [2] (mouse, in vivo, iv, 20 mg/kg), the “tolerability (in words)” value was “well tolerated”. For the same molecule, in data set [3], the “CR (complete regression), number of mice” value was determined as 0; the “TFS (Tumor Free Survivor), number of mice” value is on record as 0; the “antitumor efficacy compared with control group 1 (in words)” value was “did not demonstrate any antitumor efficacy”; the “TGDI (Tumor Growth Delay Index)” value was found to be 1.33. Besides, in data set [3], the “TS (Tumor Stabilization), number of mice” value was found to be 0; the “Best T/C%” value came to 74.68%; the “T/C % at day 16” value stood at 74.68%; the “median TGD x 5” value worked out at 13.70 days. Also, the “PR (partial regression), number of mice” value in data set [3] is 0. Further, in data set [3] (GM102 alone, did not reach statistical significance), the tumor growth inhibition is listed as 25%.

One may read the Kd as the concentration at which binding is half-saturated. The low end stands for higher affinity, the high end for lower affinity.

The values are drawn from patent publication US20230227566A1, “AMHRII-BINDING COMPOUNDS FOR PREVENTING OR TREATING LUNG CANCERS” (GAMAMABS PHARMA, priority 2017, published 2023).
